Patent US8765779B2, “Tricyclic derivatives and their pharmaceutical use and compositions” (Cephalon, Inc., priority 2009, dated 2014)
Where a name gives a salt, the structure may show the parent alone.

Experiments:
[1] = target: T1, human 5-HT6 receptor (Homo sapiens, UniProt P50406); experiment: Human 5-HT6 Receptor Binding Assay ([3H]LSD displacement, scintillation beads); conditions: membranes of CHO-K1 cells with recombinant human 5-HT6, 4 nM [3H]LSD; Table 1, class symbols; read-out: h5-HT6 (Ki)
T1 construct: host or cells: CHO-K1 cells, stably transfected; membranes prepared in house
T1 sequence (P50406 whole entry): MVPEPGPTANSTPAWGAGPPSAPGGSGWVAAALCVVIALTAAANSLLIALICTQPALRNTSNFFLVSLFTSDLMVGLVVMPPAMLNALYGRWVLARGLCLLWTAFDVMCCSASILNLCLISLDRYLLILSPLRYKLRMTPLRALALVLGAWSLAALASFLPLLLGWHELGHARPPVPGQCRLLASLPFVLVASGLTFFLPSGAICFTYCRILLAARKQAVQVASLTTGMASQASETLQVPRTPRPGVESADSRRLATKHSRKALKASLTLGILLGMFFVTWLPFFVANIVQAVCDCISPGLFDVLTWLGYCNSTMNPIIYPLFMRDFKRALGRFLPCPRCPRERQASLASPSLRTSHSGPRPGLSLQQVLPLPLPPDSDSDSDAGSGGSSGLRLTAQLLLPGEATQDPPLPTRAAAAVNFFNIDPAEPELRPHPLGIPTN

melting point | Ki [1] [nM] | Compound
286 to 288 °C | – | CC1(C)CNC2(CCOCC2)c2oc3cc(S(=O)(=O)c4cccc(F)c4)ccc3c21 (as salt: HCl) [Example 2, 7-[(3-fluorophenyl)sulfonyl]-4,4-dimethyl-2′,3,3′,4,5′,6′-hexahydro-2H-spiro[1-benzofuro[2,3-c]pyridine-1,4′-pyran]]
243 to 245 °C | – | CC(C)Oc1cccc(S(=O)(=O)c2ccc3c4c(oc3c2)C(C)(C)NCC4)c1 (as salt: HCl) [Example 15, 1,1-dimethyl-7-{[3-(propan-2-yloxy)phenyl]sulfonyl}-1,2,3,4-tetrahydro[1]benzofuro[2,3-c]pyridine]
335 °C (dec.) | – | COc1cccc(S(=O)(=O)c2ccc3c4c(oc3c2)C(C)(C)NCC4)c1 (as salt: HCl) [Example 16, 7-[(3-methoxyphenyl)sulfonyl]-1,1-dimethyl-1,2,3,4-tetrahydro[1]benzofuro[2,3-c]pyridine]
> 200 °C (dec.) | – | CC1(C)NCCc2c1oc1cc(S(=O)(=O)c3cccc(Cl)c3)ccc21 (as salt: HCl) [Example 17, 7-[(3-chlorophenyl)sulfonyl]-1,1-dimethyl-1,2,3,4-tetrahydro[1]benzofuro[2,3-c]pyridine]
> 200 °C (dec.) | – | CC1(C)NCCc2c1oc1cc(S(=O)(=O)c3ccc(F)c(Cl)c3)ccc21 (as salt: HCl) [Example 18, 7-[(3-chloro-4-fluorophenyl)sulfonyl]-1,1-dimethyl-1,2,3,4-tetrahydro[1]benzofuro[2,3-c]pyridine]
305 to 310 °C | – | Cc1cccc(S(=O)(=O)c2ccc3c4c(oc3c2)C(C)(C)NCC4)n1 (as salt: HCl) [Example 19, 1,1-dimethyl-7-[(6-methylpyridin-2-yl)sulfonyl]-1,2,3,4-tetrahydro[1]benzofuro[2,3-c]pyridine]
> 200 °C (dec.) | – | O=S(=O)(c1cccc(F)c1)c1ccc2c3c(oc2c1)C1(CCC1)NCC3 (as salt: HCl) [Example 25, 7-[(3-fluorophenyl)sulfonyl]-3,4-dihydro-2H-spiro[1-benzofuro[2,3-c]pyridine-1,1′-cyclobutane]]
> 200 °C (dec.) | – | CC(C)Oc1cccc(S(=O)(=O)c2ccc3c4c(oc3c2)C2(CCC2)NCC4)c1 (as salt: HCl) [Example 26, 7-{[3-(propan-2-yloxy)phenyl]sulfonyl}-3,4-dihydro-2H-spiro[1-benzofuro[2,3-c]pyridine-1,1′-cyclobutane]]
> 250 °C | – | O=S(=O)(c1cccc(F)c1)c1ccc2c3c(oc2c1)C1(CCCC1)NCC3 (as salt: HCl) [Example 28, 7-[(3-fluorophenyl)sulfonyl]-3,4-dihydro-2H-spiro[1-benzofuro[2,3-c]pyridine-1,1′-cyclopentane]]
298 to 300 °C (dec.) | – | O=S1(=O)CCC2(CC1)NCCc1c2oc2cc(S(=O)(=O)c3cccc(F)c3)ccc12 (as salt: HCl) [Example 38, 7-[(3-fluorophenyl)sulfonyl]-2′,3,3′,4,5′,6′-hexahydro-2H-spiro[1-benzofuro[2,3-c]pyridine-1,4′-thiopyran] 1′,1′-dioxide]
196 to 198 °C | – | COCC1(COC)NCCc2c1oc1cc(S(=O)(=O)c3cccc(F)c3)ccc21 (as salt: HCl) [Example 39, 7-[(3-fluorophenyl)sulfonyl]-1,1-bis(methoxymethyl)-1,2,3,4-tetrahydro[1]benzofuro[2,3-c]pyridine]
256 °C (dec.) | – | CC(=O)N1CCC2(CC1)NCCc1c2oc2cc(S(=O)(=O)c3cccc(F)c3)ccc12 (as salt: HCl) [Example 41, 1-{7-[(3-fluorophenyl)sulfonyl]-3,4-dihydro-1′H,2H-spiro[1-benzofuro[2,3-c]pyridine-1,4′-piperidin]-1′-yl}ethanone]
> 200 °C | – | CC1(C)NCCc2c1oc1ccc(S(=O)(=O)c3cccc(F)c3)cc21 (as salt: HCl) [Example 42, 6-[(3-fluorophenyl)sulfonyl]-1,1-dimethyl-1,2,3,4-tetrahydro[1]benzofuro[2,3-c]pyridine]
250 °C (dec.) | – | CC(C)Oc1cccc(S(=O)(=O)c2ccc3c4c(oc3c2)C2(CCOCC2)NCC4)c1 (as salt: HCl) [Example 44, 7-{[3-(propan-2-yloxy)phenyl]sulfonyl}-2′,3,3′,4,5′,6′-hexahydro-2H-spiro[1-benzofuro[2,3-c]pyridine-1,4′-pyran]]
250 to 265 °C | – | O=S(=O)(c1ccc2c3c(oc2c1)C1(CCOCC1)NCC3)c1cccc(F)c1F (as salt: HCl) [Example 475]
283 to 286 °C | – | CN(C)C(=O)c1c(F)cccc1S(=O)(=O)c1ccc2c(c1)OC1CNCCC21 (stereo not drawn) (as salt: HCl) [Example 476]
> 200 °C | – | CNC(=O)c1c(F)cccc1S(=O)(=O)c1ccc2c(c1)OC1CNCCC21 (stereo not drawn) (as salt: HCl) [Example 477]
> 290 °C | – | CNC(=O)c1cccc(S(=O)(=O)c2ccc3c4c(oc3c2)CNCC4)c1 (as salt: HCl) [Example 478]
245 to 248 °C | – | CN(C)C(=O)c1c(F)cccc1S(=O)(=O)c1ccc2c3c(oc2c1)CNCC3 (as salt: HCl) [Example 479]
248 to 251 °C | – | COc1cc(OC)cc(S(=O)(=O)c2ccc3c(c2)OC2CNCCC32)c1 (stereo not drawn) (as salt: HCl) [Example 480]
221 to 223 °C | – | CC(C)Oc1cccc(S(=O)(=O)c2ccc3c(c2)OC2CNCCC32)c1F (stereo not drawn) (as salt: HCl) [Example 481]
175 to 177 °C | – | O=S(=O)(c1ccc2c(c1)OC1CNCCC21)c1cccc(OCC2CCOCC2)c1F (stereo not drawn) (as salt: HCl) [Example 482]
221 to 224 °C | – | CC(C)Oc1cccc(S(=O)(=O)c2ccc3c(c2)OC2CNCCC32)c1F (stereo not drawn) (as salt: HCl) [Example 483]
171 to 172 °C | – | O=S(=O)(c1cc(F)cc(OCc2ccccc2)c1)c1ccc2c(c1)OC1CNCCC21 (stereo not drawn) (as salt: HCl) [Example 484]
185 to 187 °C | – | O=S(=O)(c1ccc2c(c1)OC1CNCCC21)c1cccc(OCC2CCOCC2)c1Cl (stereo not drawn) (as salt: HCl) [Example 485]
– | > 1000 | O=S(=O)(Nc1ccc(Cl)cc1)c1ccc2c(c1)C1CCNCC1O2 (stereo not drawn) [Example 836, N-(4-Chlorophenyl)-1,2,3,4,4a,9a-hexahydro[1]benzofuro[2,3-c]pyridine-6-sulfonamide]

melting point | Ki [1] [nM] | Compound
– | > 1000 | O=S(=O)(Nc1cccc2ccccc12)c1ccc2c(c1)C1CCNCC1O2 (stereo not drawn) [Example 837]
– | 500 to 1000 | O=S(=O)(c1ccc2c(c1)C1CCNCC1O2)N1CCc2ccccc21 (stereo not drawn) [Example 838]
– | > 1000 | O=S(=O)(Nc1ccccc1F)c1ccc2c(c1)C1CCNCC1O2 (stereo not drawn) [Example 839]
– | > 1000 | O=S(=O)(Nc1ccccc1Cl)c1ccc2c(c1)C1CCNCC1O2 (stereo not drawn) [Example 840]
– | > 1000 | COc1ccccc1NS(=O)(=O)c1ccc2c(c1)C1CCNCC1O2 (stereo not drawn) [Example 841]
– | > 1000 | O=S(=O)(Nc1cccc(F)c1F)c1ccc2c(c1)C1CCNCC1O2 (stereo not drawn) [Example 842]
– | > 1000 | O=S(=O)(Nc1cc(Cl)cc(Cl)c1)c1ccc2c(c1)C1CCNCC1O2 (stereo not drawn) [Example 843]
– | > 1000 | O=S(=O)(Nc1ccc(Cl)cc1Cl)c1ccc2c(c1)C1CCNCC1O2 (stereo not drawn) [Example 844]
– | > 1000 | O=S(=O)(c1ccc2c(c1)C1CCNCC1O2)N1CCN(c2ccccc2)CC1 (stereo not drawn) [Example 845]
– | > 1000 | O=S(=O)(Nc1cccc(F)c1)c1ccc2c(c1)C1CCNCC1O2 (stereo not drawn) [Example 846]
– | > 1000 | O=S(=O)(Nc1ccc(F)cc1)c1ccc2c(c1)C1CCNCC1O2 (stereo not drawn) [Example 847]
– | > 1000 | O=S(=O)(Nc1ccccc1)c1ccc2c(c1)C1CCNCC1O2 (stereo not drawn) [Example 848]
– | > 1000 | O=S(=O)(NC1CCCCC1)c1ccc2c(c1)C1CCNCC1O2 (stereo not drawn) [Example 849, N-cyclohexy1-1,2,3,4,4a,9a-hexahydro[1]benzofuro[2,3-c]pyridine-6-sulfonamide]
– | > 1000 | COc1cccc(NS(=O)(=O)c2ccc3c(c2)C2CCNCC2O3)c1 (stereo not drawn) [Example 850]
– | > 1000 | Cc1ccc(NS(=O)(=O)c2ccc3c(c2)C2CCNCC2O3)cc1F (stereo not drawn) [Example 851]
– | > 1000 | O=S(=O)(Nc1ccc(Cl)c(Cl)c1)c1ccc2c(c1)C1CCNCC1O2 (stereo not drawn) [Example 852]
– | 500 to 1000 | O=S(=O)(Nc1cccc(Cl)c1)c1ccc2c(c1)C1CCNCC1O2 (stereo not drawn) [Example 853]
– | > 1000 | O=S(=O)(NCc1ccc(Cl)cc1)c1ccc2c(c1)C1CCNCC1O2 (stereo not drawn) [Example 854]
– | > 1000 | O=S(=O)(NCCc1ccccc1)c1ccc2c(c1)C1CCNCC1O2 (stereo not drawn) [Example 855]
– | < 500 | O=S(=O)(c1ccc2c(c1)C1CCNCC1O2)N1CCc2ccccc2C1 (stereo not drawn) [Example 856]
– | > 1000 | O=S(=O)(NC1Cc2ccccc2C1)c1ccc2c(c1)C1CCNCC1O2 (stereo not drawn) [Example 857]
– | > 1000 | CN(Cc1ccccc1)S(=O)(=O)c1ccc2c(c1)C1CCNCC1O2 (stereo not drawn) [Example 858]
– | > 1000 | COc1cc2c(cc1OC)CN(S(=O)(=O)c1ccc3c(c1)C1CCNCC1O3)CC2 (stereo not drawn) [Example 859]
– | > 1000 | O=S(=O)(c1ccc2c(c1)C1CCNCC1O2)N1CCC2CCCCC2C1 (stereo not drawn) [Example 860]
– | 500 to 1000 | O=S(=O)(c1ccc2c(c1)C1CCNCC1O2)N1CCC(c2ccccc2)CC1 (stereo not drawn) [Example 861]
– | > 1000 | O=S(=O)(c1ccc2c(c1)C1CCNCC1O2)N1CCC2(CC1)OCc1ccccc12 (stereo not drawn) [Example 862]

Compound | melting point | Ki [1] [nM]
COc1c(F)cc(F)cc1S(=O)(=O)c1ccc2c(c1)OC1CNCCC21C (stereo not drawn) (as salt: HCl) [Example 486] | 259 to 261 °C | –
COc1cc(OC)cc(S(=O)(=O)c2ccc3c(c2)OC2CNCCC32C)c1 (stereo not drawn) (as salt: HCl) [Example 487] | 283 to 285 °C | –
CC12CCNCC1Oc1cc(S(=O)(=O)c3cccc(F)c3F)ccc12 (stereo not drawn) (as salt: HCl) [Example 488] | 202 to 204 °C | –
COc1cc(OC)cc(S(=O)(=O)c2ccc3c(c2)OC2CNCCC32C)c1 (stereo not drawn) (as salt: HCl) [Example 489] | 254 to 255 °C | –
COc1cc(OC)cc(S(=O)(=O)c2ccc3c(c2)OC2CNCCC32C)c1 (stereo not drawn) (as salt: HCl) [Example 490] | 250 to 252 °C | –
